Values of other authors as cited in US20060019984A1, “Treatment of diseases with alpha-7nACh receptor full agonists” (Pfizer Inc, priority 2003, published 2006).

How the values were obtained:
[1] = target: T1, 5HT3R (Homo sapiens, UniProt P46098); conditions: general statement, no method or value given
T1 sequence (P46098 24-478): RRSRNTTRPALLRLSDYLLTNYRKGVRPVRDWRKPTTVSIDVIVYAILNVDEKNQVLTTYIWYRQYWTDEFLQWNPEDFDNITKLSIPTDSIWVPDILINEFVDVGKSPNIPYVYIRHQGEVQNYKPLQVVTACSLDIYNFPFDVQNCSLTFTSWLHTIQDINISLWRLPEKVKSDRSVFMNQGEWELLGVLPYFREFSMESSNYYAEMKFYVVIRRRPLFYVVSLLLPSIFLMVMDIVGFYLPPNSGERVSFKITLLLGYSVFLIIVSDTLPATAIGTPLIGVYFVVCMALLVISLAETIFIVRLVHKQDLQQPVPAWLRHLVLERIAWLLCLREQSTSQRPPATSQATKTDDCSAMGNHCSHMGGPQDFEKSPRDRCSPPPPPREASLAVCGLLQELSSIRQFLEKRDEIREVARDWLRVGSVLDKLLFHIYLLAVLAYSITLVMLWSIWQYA

[2] = target: α7 nAChR (Homo sapiens, UniProt P36544); conditions: general statement, no method or value given
α7 nAChR, sequence (P36544 23-502): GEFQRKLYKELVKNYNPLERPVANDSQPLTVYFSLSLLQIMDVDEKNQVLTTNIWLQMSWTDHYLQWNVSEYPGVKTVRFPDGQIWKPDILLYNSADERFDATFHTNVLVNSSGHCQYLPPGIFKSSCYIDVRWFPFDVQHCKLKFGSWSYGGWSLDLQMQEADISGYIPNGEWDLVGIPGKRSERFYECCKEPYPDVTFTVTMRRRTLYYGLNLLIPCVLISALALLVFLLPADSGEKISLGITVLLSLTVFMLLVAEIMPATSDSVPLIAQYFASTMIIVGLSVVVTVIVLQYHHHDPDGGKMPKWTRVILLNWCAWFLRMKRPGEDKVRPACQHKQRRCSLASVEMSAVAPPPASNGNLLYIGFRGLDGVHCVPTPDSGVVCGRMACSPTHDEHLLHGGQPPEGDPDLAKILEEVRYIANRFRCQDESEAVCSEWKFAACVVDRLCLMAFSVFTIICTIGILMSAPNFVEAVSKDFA

activity at the 5HT3R [1]	activity at the α7 nAChR [2]	Compound
little activity	–	COc1ccc(/C=C2\CCCN=C2c2cccnc2)c(OC)c1 [GTS-21]
–	little activity	Cc1nccn1CC1CCc2c(c3ccccc3n2C)C1=O (centres unmarked) [Ondansetron]
